Test system: IL-1β production in PMA-differentiated THP-1 cells
Test: IL-1β production in PMA-differentiated THP-1 cells stimulated with gramicidin (hTHP-1 assay, HTRF readout; Procedures 1-3)
Assay type: cell-based, human
Details: Homo sapiens, THP-1, hTHP-1 assay containing 2% fetal bovine serum; average; class symbols; read-out: hTHP-1 IC50 (Average IC50 of compounds in hTHP-1 assay)
Outline: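 PMA-differentiated (20 ng/ml, 16-18 h) THP-1 cells in RPMI with 2% FBS, 50,000 cells/well, preincubated 1 h with compound (final 0.0017-100 μM, 0.37% DMSO), then stimulated with 5 μM gramicidin for 2 h. IL-1β in cell-free supernatant measured by HTRF (620/668 nm).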

First: Cc1ccc(S(N)(=O)=NC(=O)Nc2c(C(C)C)cc(F)cc2C(C)C)nc1 (stereo not drawn) [Example 220, N′-((4-fluoro-2,6-diisopropylphenyl)carbamoyl)-5-methylpyridine-2-sulfonimidamide]
Second: Cc1oc(S(N)(=O)=NC(=O)Nc2c(C(C)C)cncc2C(C)C)cc1C(C)(C)O (stereo not drawn) [Example 222, N′-((3,5-diisopropylpyridin-4-yl)carbamoyl)-4-(2-hydroxypropan-2-yl)-5-methylfuran-2-sulfonimidamide]
The IC50 of the first is higher: 5 to 30 µM for the first, 0.2 to 1 µM for the second. The second is the more potent here.

Cc1oc(S(N)(=O)=NC(=O)Nc2c3c(nc4c2CCC4)CCC3)cc1C(C)(C)O (stereo not drawn) [Example 221, N′-((1,2,3,5,6,7-hexahydrodicyclopenta[b,e]pyridin-8-yl)carbamoyl)-4-(2-hydroxypropan-2-yl)-5-methylfuran-2-sulfonimidamide] and CC(C)(O)c1cnc(S(N)(=O)=NC(=O)Nc2c3c(cc4c2CCO4)CCC3)s1 (stereo not drawn) [Example 257, 5-(2-hydroxypropan-2-yl)-N′-((3,5,6,7-tetrahydro-2H-indeno[5,6-b]furan-4-yl)carbamoyl)thiazole-2-sulfonimidamide] fall in the same range of IC50: 0.04 to 0.2 µM for the first, 0.04 to 0.2 µM for the second.

First: CC(C)(O)c1ncc(S(N)(=O)=NC(=O)Nc2c3c(cc4c2CC4)CC3)s1 (stereo not drawn) [Example 226, 2-(2-Hydroxypropan-2-yl)-N′-(tricyclo[6.2.0.03,6]deca-1,3(6),7-trien-2-ylcarbamoyl)thiazole-5-sulfonimidamide]
Second: CC(C)(O)c1ncc(S(N)(=O)=NC(=O)Nc2c3c(cc4c2CCC4O)CCC3)s1 (stereo not drawn) [Example 230]
The IC50 of the first is lower: 0.008 to 0.04 µM for the first, 1 to 5 µM for the second.

NS(=O)(=NC(=O)Nc1c2c(c(F)c3c1CCC3)CCC2)c1ccc(O)cc1F (stereo not drawn) [Example 229, 2-Fluoro-N′-(8-fluoro-1,2,3,5,6,7-hexahydro-s-indacen-4-ylcarbamoyl)-4-hydroxybenzenesulfonimidamide] and NS(=O)(=NC(=O)Nc1c2c(cc3c1CCC3)CCC2)c1ccc(CO)cc1 (stereo not drawn) [Example 233, 1-[amino[4-(hydroxymethyl)phenyl]oxo-λ^6-sulfanylidene]-3-(1,2,3,5,6,7-hexahydro-s-indacen-4-yl)urea] fall in the same range of IC50: 1 to 5 µM for the first, 1 to 5 µM for the second.

COC1CN(Cc2ccc(S(N)(=O)=NC(=O)Nc3c4c(cc5c3CCC5)CCC4)cc2)C1 (stereo not drawn) [Example 231] and NS(=O)(=NC(=O)Nc1c2c(cc3c1CCC3)CCC2)c1ccc(CN2CCC2)cc1 (stereo not drawn) [Example 237, 4-(Azetidin-1-ylmethyl)-N′-(1,2,3,5,6,7-hexahydro-s-indacen-4-ylcarbamoyl)benzenesulfonimidamide] fall in the same range of IC50: 1 to 5 µM for the first, 1 to 5 µM for the second.

COCCN(C)Cc1ccc(S(N)(=O)=NC(=O)Nc2c3c(cc4c2CCC4)CCC3)cc1 (stereo not drawn) [Example 232, N′-(1,2,3,5,6,7-hexahydro-s-indacen-4-ylcarbamoyl)-4-(((2-methoxyethyl)(methyl)amino)meth-yl)benzenesulfonimidamide] and C=CCN(C)Cc1ccc(S(N)(=O)=NC(=O)Nc2c3c(cc4c2CCC4)CCC3)cc1 (stereo not drawn) [Example 238, 4-((Allyl(methyl)amino)methyl)-N′-(1,2,3,5,6,7-hexahydro-s-indacen-4-ylcarbamoyl)benzenesulfonimidamide] fall in the same range of IC50: 1 to 5 µM for the first, 1 to 5 µM for the second.

NS(=O)(=NC(=O)Nc1c2c(cc3c1CCC3)CCC2)c1ccc(CN2CCOCC2)cc1 (stereo not drawn) [Example 234, N′-(1,2,3,5,6,7-hexahydro-s-indacen-4-ylcarbamoyl)-4-(morpholino-methyl)benzenesulfonimidamide] and NS(=O)(=NC(=O)Nc1c2c(cc3c1CCC3)CCC2)c1ccc(CN2CCCC2)cc1 (stereo not drawn) [Example 236, N′-(1,2,3,5,6,7-hexahydro-s-indacen-4-ylcarbamoyl)-4-(pyrrolidin-1-ylmethyl)benzenesulfonimidamide] fall in the same range of IC50: 1 to 5 µM for the first, 1 to 5 µM for the second.

Compared with NS(=O)(=NC(=O)Nc1c2c(cc3c1CCC3)CCC2)c1ccc(CN2CCC(F)(F)C2)cc1 (stereo not drawn) [Example 235, 4-((3,3-Difluoropyrrolidin-1-yl)methyl)-N′-(1,2,3,5,6,7-hexahydro-s-indacen-4-ylcarbamoyl)benzenesulfonimidamide], NS(=O)(=NC(=O)Nc1c2c(cc3c1CCC3)CCC2)c1ccc(CN2CCCC2=O)cc1 (stereo not drawn) [Example 244] is higher in IC50: 1 to 5 µM for the first, 5 to 30 µM for the second.

C#CCN(C)Cc1ccc(S(N)(=O)=NC(=O)Nc2c3c(cc4c2CCC4)CCC3)cc1 (stereo not drawn) [Example 239, N′-(1,2,3,5,6,7-hexahydro-s-indacen-4-ylcarbamoyl)-4-((methyl(prop-2-ynyl)amino)methyl)benzene-sulfonimidamide] and CN(Cc1ccc(S(N)(=O)=NC(=O)Nc2c3c(cc4c2CCC4)CCC3)cc1)CC(F)F (stereo not drawn) [Example 241, 4-(((2,2-Difluoroethyl)(methyl)amino)methyl)-N′-(1,2,3,5,6,7-hexahydro-s-indacen-4-ylcarbamoyl)benzenesulfonimidamide] fall in the same range of IC50: 1 to 5 µM for the first, 1 to 5 µM for the second.

CN(Cc1ccc(S(N)(=O)=NC(=O)Nc2c3c(cc4c2CCC4)CCC3)cc1)CC1CC1 (stereo not drawn) [Example 240, 4-(((Cyclopropyl-methyl)(methyl)amino)methyl)-N′-(1,2,3,5,6,7-hexahydro-s-indacen-4-ylcarbamoyl)benzenesulfonimidamide] and NCc1ccc(S(N)(=O)=NC(=O)Nc2c3c(cc4c2CCC4)CCC3)cc1 (stereo not drawn) [Example 243, 4-(Aminomethyl)-N′-(1,2,3,5,6,7-hexahydro-s-indacen-4-ylcarbamoyl)benzenesulfonimidamide] fall in the same range of IC50: 1 to 5 µM for the first, 1 to 5 µM for the second.

COCc1ccc(S(N)(=O)=NC(=O)Nc2c3c(cc4c2CCC4)CCC3)cc1 (stereo not drawn) [Example 242, N′-(1,2,3,5,6,7-hexahydro-s-indacen-4-ylcarbamoyl)-4-(methoxymethyl)benzenesulfonimidamide] and COC(=O)CCC(=O)N(C)Cc1ccc(S(N)(=O)=NC(=O)Nc2c3c(cc4c2CCC4)CCC3)cc1 (stereo not drawn) [Example 251] fall in the same range of IC50: 1 to 5 µM for the first, 1 to 5 µM for the second.

CN(C)S(=O)(=NC(=O)Nc1c2c(cc3c1CCC3)CCC2)c1cc(C(C)(C)O)cs1 (stereo not drawn) [Example 245] and CNS(=O)(=NC(=O)Nc1c2c(cc3c1CCC3)CCC2)c1cc(C(C)(C)O)cs1 (stereo not drawn) [Example 246] fall in the same range of IC50: 5 to 30 µM for the first, 5 to 30 µM for the second.

CC(=O)NS(=O)(=NC(=O)Nc1c2c(cc3c1CCC3)CCC2)c1cnc(C(C)(C)O)s1 (stereo not drawn) [Example 250] and CCc1ccc2cnn(C)c2c1NC(=O)N=S(N)(=O)c1ncc(C(C)(C)O)s1 (stereo not drawn) [Example 255, N′-((6-ethyl-1-methyl-1H-indazol-7-yl)carbamoyl)-5-(2-hydroxypropan-2-yl)thiazole-2-sulfonimidamide] fall in the same range of IC50: 5 to 30 µM for the first, 5 to 30 µM for the second.

Compound CC(C)c1ccc(C#N)c(C(C)C)c1NC(=O)N=S(N)(=O)c1ccc(C(C)(C)O)s1 (stereo not drawn) [Example 254, N′-((3-cyano-2,6-diisopropylphenyl)carbamoyl)-5-(2-hydroxypropan-2-yl)thiophene-2-sulfonimidamide] has an IC50 of 1 to 5 µM.

Same assay, conditions: Homo sapiens, THP-1, hTHP-1 assay containing 2% fetal bovine serum; average; given as bound; read-out: hTHP-1 IC50 (Average IC50 of compounds in hTHP-1 assay)

CN(Cc1ccc(S(N)(=O)=NC(=O)Nc2c3c(cc4c2CCC4)CCC3)cc1)C(=O)CCC(=O)O (stereo not drawn) [Example 252] and CCc1ccc2cn(C)nc2c1NC(=O)N=S(N)(=O)c1ncc(C(C)(C)O)s1 (stereo not drawn) [Example 256, N′-((6-ethyl-2-methyl-2H-indazol-7-yl)carbamoyl)-5-(2-hydroxypropan-2-yl)thiazole-2-sulfonimidamide] cannot be ordered by IC50: > 30 µM for the first, > 30 µM for the second.

Same assay, conditions: hTHP-1 assay containing 2% fetal bovine serum; average; class symbols; read-out: hTHP-1 IC50 (Average IC50 of compounds in hTHP-1 assay)

Compound CN(C(=O)N=S(N)(=O)c1cnc(C(C)(C)O)s1)c1c2c(cc3c1CCC3)CCC2 (stereo not drawn) [Example 248, N′-((1,2,3,5,6,7-hexahydro-s-indacen-4-yl)(methyl)carbamoyl)-2-(2-hydroxypropan-2-yl) thiazole-5-sulfonimidamide] has an IC50 of 5 to 30 µM.

From US10654816B2, “Compounds and compositions for treating conditions associated with NLRP activity” (NOVARTIS INFLAMMASOME RESEARCH, INC., priority 2017, dated 2020)
